Data on three compounds can be found in ChEMBL document CHEMBL1201862, “PubChem BioAssay data set” (2004).

The target of assay [1] is MAP kinase-activated protein kinase 3 (Homo sapiens, UniProt Q16644). Type of assay: functional.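 Further: value comes from a kinome-wide profiling panel in which MAPKAPK3 is one of the panel members.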
In assay [2] the target is Aurora kinase A (Homo sapiens, UniProt O14965). In kind it is functional.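 Further: value from the Navigating the Kinome kinase panel profiling, panel entry STK6.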
Assay [3] addresses Calcium/calmodulin-dependent protein kinase type II subunit beta (Homo sapiens, UniProt Q13554). In kind it is functional.
Assay [4] has as its target Serine/threonine-protein kinase Nek4 (Homo sapiens, UniProt P51957). In kind it is functional.
For assay [5], the target named is MAP kinase-activated protein kinase 2 (Homo sapiens, UniProt P49137). Type of assay: functional.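 Further: measured as one member of a kinome-wide kinase panel.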
In assay [6] the target is T1, Dual specificity tyrosine-phosphorylation-regulated kinase 3 (Homo sapiens, UniProt O43781).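 Further: measured as one member of a broad kinase panel.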
T1 sequence (O43781 whole entry): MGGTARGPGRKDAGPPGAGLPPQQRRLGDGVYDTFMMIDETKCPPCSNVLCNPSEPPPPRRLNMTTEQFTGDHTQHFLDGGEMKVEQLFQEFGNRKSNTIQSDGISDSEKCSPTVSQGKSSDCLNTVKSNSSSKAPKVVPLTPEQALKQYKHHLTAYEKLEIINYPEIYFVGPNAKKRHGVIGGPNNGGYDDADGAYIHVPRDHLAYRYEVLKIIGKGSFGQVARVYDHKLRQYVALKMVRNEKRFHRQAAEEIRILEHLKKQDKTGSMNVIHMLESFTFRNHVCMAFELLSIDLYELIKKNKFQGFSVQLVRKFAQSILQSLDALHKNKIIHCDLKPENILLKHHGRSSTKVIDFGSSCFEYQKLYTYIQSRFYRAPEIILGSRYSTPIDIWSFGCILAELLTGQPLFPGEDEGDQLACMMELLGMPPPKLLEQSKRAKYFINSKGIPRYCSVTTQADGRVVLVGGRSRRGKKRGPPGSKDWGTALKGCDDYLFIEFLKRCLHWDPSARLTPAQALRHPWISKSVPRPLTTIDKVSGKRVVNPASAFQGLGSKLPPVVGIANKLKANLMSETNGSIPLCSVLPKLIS
Type of assay: functional.

The target in assay [7] is Inhibitor of nuclear factor kappa-B kinase subunit beta (Homo sapiens, UniProt O14920). In kind it is functional.
In assay [8] the target is Calcium/calmodulin-dependent protein kinase type II subunit gamma (Homo sapiens, UniProt Q13555). In kind it is functional.
Assay [9] deals with Receptor-type tyrosine-protein kinase FLT3 (Homo sapiens, UniProt P36888). In kind it is functional.
The target of assay [10] is Dual specificity protein kinase CLK2 (Homo sapiens, UniProt P49760). In kind it is functional.
Assay [11] has as its target Serine/threonine-protein kinase DCLK1 (Homo sapiens, UniProt O15075). In kind it is functional.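 Further: affinity for DCLK1 (listed as DCAMKL1) measured as one member of a kinome-wide kinase profiling panel.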
Assay [12] addresses Tyrosine-protein kinase Blk (Homo sapiens, UniProt P51451). Type of assay: functional.
The target in assay [13] is Cyclin-dependent kinase 2 (Homo sapiens, UniProt P24941). Type of assay: functional.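 Further: CDK2 measured as one member of a broad kinome profiling panel.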
In assay [14] the target is RNA-editing ligase 1, mitochondrial (Trypanosoma brucei brucei, UniProt P86926). The assay can be described thus: TbREL1 ligase inhibitors, dose response, biochemical, fluorescence, Trypanosoma brucei (AID 1117295). In kind it is functional.
Assay [15] can be described thus: MDA-MB-231 cell growth inhibition, dose response, cytotoxicity control for RAD54 inhibitor project, CellTiter-Glo luminescence, cherry-pick (AID 651692). Type of assay: functional, cell-based. Background: In ATP-based viability assays light output follows the ATP content of the culture.
Assay [16] concerns the target Dual specificity protein phosphatase 3 (Homo sapiens, UniProt P51452). The assay can be described thus: VHR1 phosphatase inhibitors, biochemical (AID 1878).
The target of assay [17] is 1-phosphatidylinositol 4,5-bisphosphate phosphodiesterase gamma-1 (Homo sapiens, UniProt P19174). The assay can be described thus: Counterscreen for inhibitors of phospholipase C isozymes (PLC-B3): Fluorescence-based biochemical high throughput dose response assay to identify inhibitors of phospholipase C isozymes (PLC-gamma1). In general terms: The purpose of a counterscreen is to sort out artefacts and off-target activity.

Assay [18] deals with Caspase-9 (Homo sapiens, UniProt P55211). In words: caspase-9 enzyme inhibition, dose response, selectivity assay for caspase-6 inhibitor project, biochemical, fluorescence, plate reader, cherry-picked samples (AID 743293).
The target in assay [19] is T2, Sentrin-specific protease 7 (Homo sapiens, UniProt Q9BQF6).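 Further: Luminescence-based dose-response confirmation of ultra-high-throughput screening hits, measuring inhibition of SENP7.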
T2 sequence (Q9BQF6 whole entry): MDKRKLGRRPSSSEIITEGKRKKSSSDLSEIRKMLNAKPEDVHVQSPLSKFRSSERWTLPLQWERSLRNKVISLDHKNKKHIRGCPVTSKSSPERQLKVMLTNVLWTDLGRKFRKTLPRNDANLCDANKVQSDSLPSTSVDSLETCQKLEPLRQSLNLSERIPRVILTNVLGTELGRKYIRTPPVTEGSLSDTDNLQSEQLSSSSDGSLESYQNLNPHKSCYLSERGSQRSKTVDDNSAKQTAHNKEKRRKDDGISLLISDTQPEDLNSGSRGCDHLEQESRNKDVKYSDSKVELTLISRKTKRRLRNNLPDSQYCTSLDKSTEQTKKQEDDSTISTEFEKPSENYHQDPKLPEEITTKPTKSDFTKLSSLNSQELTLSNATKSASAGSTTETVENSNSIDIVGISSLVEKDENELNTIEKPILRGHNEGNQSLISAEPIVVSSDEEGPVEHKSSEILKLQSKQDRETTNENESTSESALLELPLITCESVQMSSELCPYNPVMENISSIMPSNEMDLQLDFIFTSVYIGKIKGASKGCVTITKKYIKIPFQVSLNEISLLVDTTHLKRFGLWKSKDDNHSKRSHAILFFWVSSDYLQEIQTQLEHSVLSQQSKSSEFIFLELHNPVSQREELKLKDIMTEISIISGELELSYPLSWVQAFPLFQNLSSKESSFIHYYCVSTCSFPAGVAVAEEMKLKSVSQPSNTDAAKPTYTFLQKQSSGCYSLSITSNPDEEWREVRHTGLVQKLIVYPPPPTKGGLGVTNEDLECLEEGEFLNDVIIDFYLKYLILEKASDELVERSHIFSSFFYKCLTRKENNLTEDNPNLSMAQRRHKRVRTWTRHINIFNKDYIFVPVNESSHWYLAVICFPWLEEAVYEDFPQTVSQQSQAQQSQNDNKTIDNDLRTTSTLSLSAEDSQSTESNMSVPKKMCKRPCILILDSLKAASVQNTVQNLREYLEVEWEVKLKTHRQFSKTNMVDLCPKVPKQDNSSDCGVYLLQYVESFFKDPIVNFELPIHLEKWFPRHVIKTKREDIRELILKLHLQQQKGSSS
Type of assay: functional.

Calls of active or inactive are those of the source. Bounds are passed on as bounds.

Sequence of Aurora kinase A (O14965 whole entry): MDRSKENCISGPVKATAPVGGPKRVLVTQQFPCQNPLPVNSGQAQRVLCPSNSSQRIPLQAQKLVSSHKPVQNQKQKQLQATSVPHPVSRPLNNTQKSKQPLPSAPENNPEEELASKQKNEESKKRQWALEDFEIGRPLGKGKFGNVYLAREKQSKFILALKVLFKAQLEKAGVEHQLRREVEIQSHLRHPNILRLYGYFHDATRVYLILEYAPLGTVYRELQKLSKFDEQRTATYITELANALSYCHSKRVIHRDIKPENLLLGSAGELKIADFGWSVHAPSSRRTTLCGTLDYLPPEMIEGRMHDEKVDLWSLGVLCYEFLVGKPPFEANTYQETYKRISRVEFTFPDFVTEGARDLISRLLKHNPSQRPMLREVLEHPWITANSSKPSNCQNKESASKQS
Sequence of Caspase-9 (P55211 1-315 limits assumed): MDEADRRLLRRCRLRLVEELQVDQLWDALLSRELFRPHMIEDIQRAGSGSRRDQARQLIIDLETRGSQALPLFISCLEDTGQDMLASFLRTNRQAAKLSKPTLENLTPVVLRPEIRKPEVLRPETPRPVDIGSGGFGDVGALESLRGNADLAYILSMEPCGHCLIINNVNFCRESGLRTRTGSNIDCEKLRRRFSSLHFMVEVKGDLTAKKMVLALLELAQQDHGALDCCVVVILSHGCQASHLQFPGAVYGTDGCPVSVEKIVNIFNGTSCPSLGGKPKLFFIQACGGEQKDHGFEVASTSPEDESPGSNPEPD
Sequence of Caspase-9 (P55211 331-416 limits assumed): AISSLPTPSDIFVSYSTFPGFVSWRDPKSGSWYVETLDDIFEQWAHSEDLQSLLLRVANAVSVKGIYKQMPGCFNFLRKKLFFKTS
Sequence of Calcium/calmodulin-dependent protein kinase type II subunit beta (Q13554 whole entry): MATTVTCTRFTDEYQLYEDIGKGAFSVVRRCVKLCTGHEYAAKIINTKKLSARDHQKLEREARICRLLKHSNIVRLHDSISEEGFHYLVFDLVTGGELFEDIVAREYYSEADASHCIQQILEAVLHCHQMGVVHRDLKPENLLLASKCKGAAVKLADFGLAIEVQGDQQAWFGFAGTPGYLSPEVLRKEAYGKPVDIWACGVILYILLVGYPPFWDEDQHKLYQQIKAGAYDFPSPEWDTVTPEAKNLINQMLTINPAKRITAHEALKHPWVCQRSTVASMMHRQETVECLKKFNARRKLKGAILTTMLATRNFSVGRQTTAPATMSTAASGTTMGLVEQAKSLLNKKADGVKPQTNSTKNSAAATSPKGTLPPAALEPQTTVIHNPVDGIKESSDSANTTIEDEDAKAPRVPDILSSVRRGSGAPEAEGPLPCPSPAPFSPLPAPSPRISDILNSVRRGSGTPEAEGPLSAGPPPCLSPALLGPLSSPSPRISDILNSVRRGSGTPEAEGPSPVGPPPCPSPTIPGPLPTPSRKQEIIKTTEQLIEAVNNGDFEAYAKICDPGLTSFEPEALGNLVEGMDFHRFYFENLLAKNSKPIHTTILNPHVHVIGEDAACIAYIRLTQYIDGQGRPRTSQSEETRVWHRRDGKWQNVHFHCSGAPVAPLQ
Sequence of Dual specificity protein phosphatase 3 (P51452 whole entry): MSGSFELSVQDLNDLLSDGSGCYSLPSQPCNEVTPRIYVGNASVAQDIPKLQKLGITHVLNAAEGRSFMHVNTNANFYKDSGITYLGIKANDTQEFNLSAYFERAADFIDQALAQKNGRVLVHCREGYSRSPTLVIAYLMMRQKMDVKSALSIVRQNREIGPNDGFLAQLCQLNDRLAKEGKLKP
Sequence of Dual specificity protein kinase CLK2 (P49760 whole entry): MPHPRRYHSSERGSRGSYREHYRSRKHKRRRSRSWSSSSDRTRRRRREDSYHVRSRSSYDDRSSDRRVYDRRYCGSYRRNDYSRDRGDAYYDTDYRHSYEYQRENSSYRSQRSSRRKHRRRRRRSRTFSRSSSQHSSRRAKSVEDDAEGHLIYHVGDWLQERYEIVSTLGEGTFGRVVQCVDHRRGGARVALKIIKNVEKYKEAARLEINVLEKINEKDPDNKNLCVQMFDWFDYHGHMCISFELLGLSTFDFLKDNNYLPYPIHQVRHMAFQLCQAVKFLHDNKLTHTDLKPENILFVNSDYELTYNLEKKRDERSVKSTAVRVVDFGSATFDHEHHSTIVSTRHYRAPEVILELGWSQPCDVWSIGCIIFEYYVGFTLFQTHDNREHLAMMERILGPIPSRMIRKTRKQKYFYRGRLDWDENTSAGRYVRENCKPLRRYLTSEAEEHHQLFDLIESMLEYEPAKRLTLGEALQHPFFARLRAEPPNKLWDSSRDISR
Sequence of Tyrosine-protein kinase Blk (P51451 whole entry): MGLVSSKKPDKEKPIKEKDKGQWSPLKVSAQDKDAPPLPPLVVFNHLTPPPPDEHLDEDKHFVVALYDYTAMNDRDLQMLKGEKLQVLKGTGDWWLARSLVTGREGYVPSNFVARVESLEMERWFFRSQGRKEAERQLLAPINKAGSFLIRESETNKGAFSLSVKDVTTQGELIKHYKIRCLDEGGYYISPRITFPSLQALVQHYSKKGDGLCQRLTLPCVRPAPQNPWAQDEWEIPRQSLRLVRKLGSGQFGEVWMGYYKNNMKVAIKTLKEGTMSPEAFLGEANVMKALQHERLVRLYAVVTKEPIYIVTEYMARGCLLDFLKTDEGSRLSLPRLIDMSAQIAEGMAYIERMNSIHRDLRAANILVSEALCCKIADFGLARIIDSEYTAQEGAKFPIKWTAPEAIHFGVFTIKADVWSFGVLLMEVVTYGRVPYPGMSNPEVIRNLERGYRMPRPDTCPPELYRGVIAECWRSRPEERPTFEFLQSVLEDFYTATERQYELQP
Sequence of RNA-editing ligase 1, mitochondrial (P86926 whole entry): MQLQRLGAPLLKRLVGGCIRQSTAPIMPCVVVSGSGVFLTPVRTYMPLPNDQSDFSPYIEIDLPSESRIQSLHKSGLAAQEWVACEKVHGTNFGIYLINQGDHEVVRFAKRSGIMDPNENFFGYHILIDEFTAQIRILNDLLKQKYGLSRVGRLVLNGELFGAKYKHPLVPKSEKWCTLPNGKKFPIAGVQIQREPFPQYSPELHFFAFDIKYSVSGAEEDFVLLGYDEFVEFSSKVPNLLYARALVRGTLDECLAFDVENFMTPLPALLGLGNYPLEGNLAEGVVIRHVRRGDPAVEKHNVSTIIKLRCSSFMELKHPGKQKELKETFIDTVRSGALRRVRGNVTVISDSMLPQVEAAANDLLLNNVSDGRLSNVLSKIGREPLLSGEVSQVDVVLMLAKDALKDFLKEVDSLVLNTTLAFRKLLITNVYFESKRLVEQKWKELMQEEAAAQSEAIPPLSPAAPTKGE
Sequence of MAP kinase-activated protein kinase 3 (Q16644 whole entry): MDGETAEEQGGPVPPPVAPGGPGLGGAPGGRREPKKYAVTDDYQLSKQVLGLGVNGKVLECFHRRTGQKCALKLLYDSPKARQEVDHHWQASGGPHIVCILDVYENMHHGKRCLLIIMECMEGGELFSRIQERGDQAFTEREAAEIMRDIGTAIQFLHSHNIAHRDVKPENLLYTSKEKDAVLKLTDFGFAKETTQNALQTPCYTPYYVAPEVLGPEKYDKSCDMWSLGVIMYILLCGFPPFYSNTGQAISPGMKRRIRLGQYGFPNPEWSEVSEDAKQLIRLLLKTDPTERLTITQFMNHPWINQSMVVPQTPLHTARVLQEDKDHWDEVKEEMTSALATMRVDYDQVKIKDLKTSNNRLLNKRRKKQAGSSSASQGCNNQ
Sequence of Calcium/calmodulin-dependent protein kinase type II subunit gamma (Q13555 whole entry): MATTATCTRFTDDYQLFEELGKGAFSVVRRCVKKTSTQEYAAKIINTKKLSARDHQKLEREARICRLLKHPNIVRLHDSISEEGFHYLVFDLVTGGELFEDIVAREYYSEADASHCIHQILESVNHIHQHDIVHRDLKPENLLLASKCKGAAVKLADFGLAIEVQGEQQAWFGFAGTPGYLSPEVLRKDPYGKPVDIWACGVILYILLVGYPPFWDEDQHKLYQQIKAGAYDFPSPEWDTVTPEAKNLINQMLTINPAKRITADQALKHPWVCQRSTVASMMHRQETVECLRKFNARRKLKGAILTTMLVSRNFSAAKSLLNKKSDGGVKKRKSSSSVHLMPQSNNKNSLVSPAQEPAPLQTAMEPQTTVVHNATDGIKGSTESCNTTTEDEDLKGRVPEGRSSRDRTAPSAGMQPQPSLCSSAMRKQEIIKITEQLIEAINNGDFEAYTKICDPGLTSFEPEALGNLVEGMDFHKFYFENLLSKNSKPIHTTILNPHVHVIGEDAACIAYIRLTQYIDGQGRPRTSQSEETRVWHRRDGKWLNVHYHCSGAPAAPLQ
Sequence of Inhibitor of nuclear factor kappa-B kinase subunit beta (O14920 whole entry): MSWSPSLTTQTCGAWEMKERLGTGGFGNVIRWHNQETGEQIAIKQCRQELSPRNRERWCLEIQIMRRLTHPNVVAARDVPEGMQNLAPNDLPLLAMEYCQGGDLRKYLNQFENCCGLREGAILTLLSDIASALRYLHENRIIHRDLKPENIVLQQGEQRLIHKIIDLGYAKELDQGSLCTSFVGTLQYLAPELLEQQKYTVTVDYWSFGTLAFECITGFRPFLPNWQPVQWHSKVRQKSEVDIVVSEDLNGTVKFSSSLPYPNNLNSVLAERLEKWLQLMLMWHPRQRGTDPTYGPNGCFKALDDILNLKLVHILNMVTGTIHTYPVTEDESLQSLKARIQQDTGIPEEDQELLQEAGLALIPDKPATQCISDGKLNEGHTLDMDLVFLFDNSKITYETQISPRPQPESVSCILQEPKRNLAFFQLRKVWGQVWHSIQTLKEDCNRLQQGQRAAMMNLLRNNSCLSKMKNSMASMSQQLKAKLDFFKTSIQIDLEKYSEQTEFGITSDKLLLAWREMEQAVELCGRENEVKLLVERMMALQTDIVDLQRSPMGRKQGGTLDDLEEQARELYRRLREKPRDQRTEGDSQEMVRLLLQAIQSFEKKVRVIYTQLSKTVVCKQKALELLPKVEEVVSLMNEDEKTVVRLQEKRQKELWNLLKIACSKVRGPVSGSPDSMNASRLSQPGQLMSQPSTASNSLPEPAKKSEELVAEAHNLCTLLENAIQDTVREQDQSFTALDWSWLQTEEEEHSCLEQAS

The Ki is a measure of affinity in units of concentration, obtained from inhibition or displacement. `COc1cc2ncn(-c3cc(OCc4ccccc4C(F)(F)F)c(C(N)=O)s3)c2cc1OC` [GW843682X]: the Ki is > 10 µM (inactive) in [1]; > 3.98 µM (inactive) in assay [2]; > 7.94 µM (inactive) in [3]; > 6.31 µM (inactive) in assay [4]; > 7.94 µM (inactive) in [5]; > 6.31 µM (inactive) in assay [6]. The Ki in assay [7] was > 3.16 µM (inactive); in assay [8], > 6.31 µM (inactive); in assay [9] it was 0.0501 µM (active); in assay [10], > 7.94 µM (inactive); in assay [11] it was > 10 µM (inactive); in assay [12] it was > 1.58 µM (inactive). The Ki in [13] was > 7.94 µM (inactive).

For orientation: IC50 means the concentration needed to halve the response being measured. As a reminder, the AC50 is the concentration at which the activity in the assay is half-maximal. Consider `CCCc1nc2c(=O)n(C)c(=O)nc-2n(C)n1`, for which the IC50 in assay [14] was 0.494 µM (active); in assay [16] it was 5.55 µM (active); in assay [17] it was > 1.51 µM (active). The values for the AC50 in [15] and in [18] were 2.71 µM (active) and 0.214 µM (active), respectively.

As for `CC(=O)c1ccc(NC2=C(N3CCOCC3)C(=O)c3ccccc3C2=O)cc1`, the IC50 in assay [19] is 18 µM (active).
